How the values were obtained:
human EHMT2 913-1193 = biological target: T1, human EHMT2 913-1193 (Homo sapiens, UniProt Q96KQ7); assay: EHMT2 enzyme assay on histone peptide substrate (EHMT2 PEP); type: biochemical; settings: Table VI; read-out: EHMT2 PEP IC50
T1 construct: recombinant purified human EHMT2 913-1193, Viva; purchased Viva
T1 sequence (Q96KQ7 913-1193): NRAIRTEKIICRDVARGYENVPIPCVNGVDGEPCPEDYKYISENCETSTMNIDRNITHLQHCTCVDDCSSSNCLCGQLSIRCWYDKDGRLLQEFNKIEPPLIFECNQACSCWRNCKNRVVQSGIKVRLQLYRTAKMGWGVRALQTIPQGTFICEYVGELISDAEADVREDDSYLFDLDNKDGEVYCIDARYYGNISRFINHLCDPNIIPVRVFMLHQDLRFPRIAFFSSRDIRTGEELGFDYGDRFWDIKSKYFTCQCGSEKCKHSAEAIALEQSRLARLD
Method in brief: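 Compounds (10-point, 3-fold dilutions, top 50 μM final, 2% DMSO) preincubated 30 min with 0.031 nM EHMT2 in 20 mM Bicine pH 7.5, 0.002% Tween 20, 0.005% gelatin, 1 mM TCEP. Biotinylated histone peptide methylated with ^3H-SAM 60 min at room temperature. Quenched with unlabeled SAM; product captured on streptavidin Flashplate, scintillation counted.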

EHMT1 = biological target: T2, EHMT1 (Homo sapiens, UniProt Q9H9B1); assay: EHMT1 enzyme assay on peptide substrate (EHMT1 PEP); type: biochemical; settings: Table VI; read-out: EHMT1 PEP IC50
T2 sequence (Q9H9B1 1-1298): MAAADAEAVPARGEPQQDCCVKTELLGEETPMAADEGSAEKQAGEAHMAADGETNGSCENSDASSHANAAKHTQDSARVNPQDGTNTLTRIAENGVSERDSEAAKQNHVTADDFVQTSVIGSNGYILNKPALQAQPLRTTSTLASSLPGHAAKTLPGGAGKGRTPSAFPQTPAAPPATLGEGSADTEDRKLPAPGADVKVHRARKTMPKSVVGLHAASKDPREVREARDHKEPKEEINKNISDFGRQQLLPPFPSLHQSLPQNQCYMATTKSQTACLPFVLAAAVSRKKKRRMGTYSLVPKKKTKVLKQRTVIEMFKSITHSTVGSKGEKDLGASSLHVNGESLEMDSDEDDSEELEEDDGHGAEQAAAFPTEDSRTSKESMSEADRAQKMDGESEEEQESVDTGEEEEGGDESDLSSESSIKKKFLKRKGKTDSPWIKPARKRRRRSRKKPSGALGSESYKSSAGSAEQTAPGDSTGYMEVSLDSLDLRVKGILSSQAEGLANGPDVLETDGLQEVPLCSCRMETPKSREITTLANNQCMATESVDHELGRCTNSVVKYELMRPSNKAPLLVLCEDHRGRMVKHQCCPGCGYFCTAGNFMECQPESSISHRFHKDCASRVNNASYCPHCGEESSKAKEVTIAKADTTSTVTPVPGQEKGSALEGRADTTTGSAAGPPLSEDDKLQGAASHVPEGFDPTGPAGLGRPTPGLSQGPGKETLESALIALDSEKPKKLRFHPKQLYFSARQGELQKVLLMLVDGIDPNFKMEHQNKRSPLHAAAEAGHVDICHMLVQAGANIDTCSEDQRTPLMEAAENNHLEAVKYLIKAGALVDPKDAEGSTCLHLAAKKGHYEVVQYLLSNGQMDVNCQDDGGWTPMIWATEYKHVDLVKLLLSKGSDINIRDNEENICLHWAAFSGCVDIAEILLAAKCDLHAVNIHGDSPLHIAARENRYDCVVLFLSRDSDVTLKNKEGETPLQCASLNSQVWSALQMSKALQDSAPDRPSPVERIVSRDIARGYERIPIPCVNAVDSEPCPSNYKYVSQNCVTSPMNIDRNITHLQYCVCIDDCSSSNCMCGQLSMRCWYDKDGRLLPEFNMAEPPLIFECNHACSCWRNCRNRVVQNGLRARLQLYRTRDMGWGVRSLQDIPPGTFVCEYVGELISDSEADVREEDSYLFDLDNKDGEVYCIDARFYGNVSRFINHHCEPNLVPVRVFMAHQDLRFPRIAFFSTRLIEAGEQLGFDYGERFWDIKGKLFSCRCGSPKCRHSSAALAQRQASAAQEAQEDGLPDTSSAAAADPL

Row | SMILES | IC50 (human EHMT2 913-1193) | IC50 (EHMT1)
1 | COc1cc2c(C3CCN(C(C)=O)CC3)cc(C)nc2cc1OCCCN1CCCC1 [Compound 834] | 100 to 1000 nM | 100 to 1000 nM
2 | CCS(=O)(=O)N1CCC(c2cc(C)nc3cc(OCCCN4CCCC4)c(OC)cc23)CC1 [Compound 836] | 100 to 1000 nM | 100 to 1000 nM
3 | COc1cc2c(C3CCN(CC(F)(F)F)CC3)cc(C)nc2cc1OCCCN1CCCC1 [Compound 837] | 100 to 1000 nM | 100 to 1000 nM
4 | COc1cc2c(C3CCN(CCC(F)(F)F)CC3)cc(C)nc2cc1OCCCN1CCCC1 [Compound 838] | < 100 nM | < 100 nM
5 | CNc1cc(C2CCN(CCOC)CC2)c2cc(OC)c(OCCCN3CCCC3)cc2n1 [Compound 839] | < 100 nM | < 100 nM
6 | COc1cc2c(C3CCN(CC(F)(F)F)CC3)nc(C)nc2cc1OCCCN1CCCC1 [Compound 841] | > 10000 nM | > 10000 nM
7 | CNc1cc(C)nc(Nc2ccc(OC)c(C#CC3CCNC3)c2)n1 (stereo not shown) [Compound 845] | 100 to 1000 nM | < 100 nM

The remaining lines, values ahead:

Row | IC50 (human EHMT2 913-1193) | IC50 (EHMT1) | SMILES
8 | < 100 nM | < 100 nM | CNc1cc(C)nc(Nc2ccc(OC)c(C#CC3CCCN3)c2)n1 (stereo not shown) [Compound 846]
9 | 100 to 1000 nM | < 100 nM | CNc1cc(C)nc(Nc2ccc(OC)c(C#CC3CCN(C)C3)c2)n1 (stereo not shown) [Compound 847]
10 | < 100 nM | < 100 nM | CNc1cc(C)nc(Nc2ccc(OC)c(C#CC3CCCN3C)c2)n1 (stereo not shown) [Compound 848]
11 | > 10000 nM | > 10000 nM | CNC(=O)c1cc(C)nc(Nc2ccc(OC)c(OCCCN3CCCC3)c2)n1 [Compound 854]
12 | < 100 nM | < 100 nM | CNc1cc(C)c2cc(OC)c(C#CCN3CCCC3)cc2n1 [Compound 859]
13 | > 10000 nM | > 10000 nM | CNc1cc(C)nc(Nc2ccc(OC)c(C#CCN3CCN(C)CC3)c2)n1 [Compound 860]
14 | < 100 nM | < 100 nM | COc1cc2c(C3CCN([C@@H]4CCOC4)CC3)cc(C)nc2cc1OCCCN1CCCC1 [Compound 863]

Source: US20210198277A1, “AMINE-SUBSTITUTED ARYL OR HETEROARYL COMPOUNDS” (Epizyme, Inc., priority 2016, published 2021)
